Results from patent US8232407B2, “Nitrogenous heterocyclic compounds with insecticidal activity, and the preparation and use thereof” (East China University of Science and Technology, priority 2008, dated 2012).

Columns and labels:
Type in all cases: in vivo
Plutella xylostella = experiment: Insecticidal activities to diamondback moth, feeding dipped leaves; details: for Plutella xylostella Mortality (%) 500 ppm: in vivo
Method: (§1) Mortality (%)=(the number of the survival aphis in control group−the number of the survival aphis in the treatment group)/the number of the survival aphis in control group×100%
(4): Insecticidal Activities to Diamondback Moth
Diamondback moth (Plutella xylostella) was tested by the way of feeding dippedleaves. Fresh cabbage leaves were immersed in above mentioned solution for 3 seconds, dried at room temperature, and fed to the tested insects. Each treatment was tested with 10 insects and repeated for 3 tumblers (3 times), while water was used as control. The number of killed insects was counted after 24 hours to calculate the mortality according to the above mentioned formula.

Nilaparvata lugens = experiment: Insecticidal activities to plant hopper, spraying method; details: for Nilaparvata lugens Mortality (%) 500 ppm: in vivo
Summary of the method: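 Nilaparvata lugens, 10 insects per tumbler, sprayed with 2 ml compound in acetone at 0.79-500 ppm, three replicates, aqueous acetone control. Dead insects counted after 24 h; mortality corrected against control survival.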

[1] = tested on: Pseudaletia separate Walker; experiment: Insecticidal activities to armyworm, leaf dipping and feeding
Method: as §1
(3): Insecticidal Activities to Armyworm
Armyworm (Pseudaletia separate Walker) was tested by the way of leaf dipping and feeding. The test compound was exactly formulated with acetone into solutions having concentrations of 500, 250, 100, 50, 25, 12.5, 6.25, 3.13 and 1.57 ppm, respectively. Aqueous acetone solution was used as control. Fresh maize leaves were immersed in the solution for 3 seconds, dried at room temperature, and fed to the tested insects. Each treatment was tested with 10 insects and repeated for 3 tumblers (3 times). The number of killed insects was counted after 24 hours to calculate the mortality according to the above mentioned formula.

Aphis craccivoral = experiment: Insecticidal activities to aphids, immersion method; details: for Aphis craccivoral Mortality (%) 500 ppm: in vivo
Summary of the method: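 Wingless adult aphids feeding on bean sprouts were dipped 5 s in 500 ppm compound (DMF stock diluted in 0.2 mL/L aqueous Triton X-100), blotted and held at 23° C. Dead counted at 24 h, three replicates; mortality corrected against Triton-only controls.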

Row | Compound | Plutella xylostella Mortality (%) 500 ppm (Plutella xylostella) | Nilaparvata lugens Mortality (%) 500 ppm (Nilaparvata lugens) | Pseudaletia separate Walker Mortality (%) 500 ppm ([1]; in vivo) | Aphis craccivoral Mortality (%) 500 ppm (Aphis craccivoral) | mortality at 500 ppm (Plutella xylostella; Plutella xylostella, 500 ppm, feeding dipped leaves, counted after 24 hours, read-out: Plutella xylostella Mortality (%) 500 ppm) | mortality at 500 ppm (Nilaparvata lugens; Nilaparvata lugens, 500 ppm, spraying method, counted after 24 hours, read-out: Nilaparvata lugens Mortality (%) 500 ppm) | Pseudaletia separate Walker Mortality (%) 500 ppm ([1]; 500 ppm, leaf dipping and feeding, counted after 24 hours) | mortality at 500 ppm (Aphis craccivoral; Aphis, 500 ppm, immersion method, read-out: Aphis craccivoral Mortality (%) 500 ppm)
1 | CCc1ccc(C=C(C2=NCCN2CC2CCOC2)[N+](=O)[O-])o1 (centres unmarked) [Compound 101] | 78% | 65% | 65% | 76% |  |  |  | 
2 | O=[N+]([O-])C(=Cc1ccccn1)C1=NCCN1Cc1ccc(Cl)nc1 [Compound 37] | 50% | 56% | 57% | 34% |  |  |  | 
3 | O=[N+]([O-])C(=Cc1cc(Br)cs1)C1=NCCN1Cc1cnc(Cl)s1 [Compound 89] | 100% | 100% | 97% | 100% |  |  |  | 
4 | O=[N+]([O-])/C(=C/c1ccco1)C1=NCCCN1Cc1ccc(Cl)nc1 [Compound 46, 1-((6-chloropyridin-3-yl)methyl)-2-(2-(furan-2-yl)-1-nitrovinyl)-1,4,5,6-tetrahydropyrimidine] |  |  |  |  | 100% | 100% | 100% | 100%
5 | CC(=C(C1=NCCN1C(C)c1ccc(Cl)nc1)[N+](=O)[O-])c1ccoc1 (racemic) [Compound 134] | 46% | 51% | 52% | 38% |  |  |  | 
6 | C[N+]1=C(C(=Cc2sc(Br)cc2Br)[N+](=O)[O-])N(Cc2ccc(Cl)nc2)CC1.[Cl-] [Compound 269] | 100% | 100% | 100% | 100% |  |  |  | 
7 | Cn1cccc1C=C(C1=[N+](C)CCN1Cc1ccc(Cl)nc1)[N+](=O)[O-].[Cl-] [Compound 275] | 100% | 100% | 100% | 100% |  |  |  | 
8 | Cc1coc(C=C(C2=[N+](C)CCN2Cc2ccc(Cl)nc2)[N+](=O)[O-])c1.[Cl-] [Compound 256] | 100% | 100% | 100% | 100% |  |  |  | 
9 | O=[N+]([O-])C(=Cc1oc(Cl)cc1Cl)C1=NCCN1Cc1ccc(Cl)nc1 [Compound 9] | 100% | 100% | 100% | 100% |  |  |  | 
10 | C[N+]1=C(C(=Cc2ccc(CO)o2)[N+](=O)[O-])N(Cc2ccc(Cl)nc2)CC1.[Cl-] [Compound 258] | 100% | 100% | 100% | 100% |  |  |  | 
11 | Cc1ccc(C=C(C2=[N+](C)CCN2Cc2ccc(Cl)nc2)[N+](=O)[O-])o1.[Cl-] [Compound 255] | 100% | 100% | 100% | 100% |  |  |  | 
12 | CC(c1ccc(Cl)nc1)N1CCN=C1C(=Cc1ccc(Cl)o1)[N+](=O)[O-] (racemic) [Compound 125] | 100% | 100% | 98% | 100% |  |  |  | 
13 | C[N+]1=C(C(=Cc2ccsc2)[N+](=O)[O-])N(Cc2ccc(Cl)nc2)CC1.[Cl-] [Compound 260] | 89% | 92% | 80% | 90% |  |  |  | 
14 | CCc1ccc(C(C)=C(C2=NCCN2Cc2ccc(Cl)nc2)[N+](=O)[O-])o1 [Compound 115] | 96% | 100% | 79% | 93% |  |  |  | 
15 | CC(=C(C1=NCCN1C(C)c1ccc(Cl)nc1)[N+](=O)[O-])c1ccsc1 (racemic) [Compound 139] | 100% | 100% | 95% | 93% |  |  |  | 
16 | N#CC(=Cc1cccs1)C1=NCCN1Cc1ccc(Cl)nc1 [Compound 146] | 100% | 100% | 100% | 100% |  |  |  | 
17 | O=[N+]([O-])C(=Cc1ccoc1)C1=NCCN1Cc1cnc(Cl)s1 [Compound 69] | 100% | 100% | 100% | 100% |  |  |  | 
18 | CC[N+]1=C(C(=Cc2ccoc2)[N+](=O)[O-])N(Cc2ccc(Cl)nc2)CC1.[Cl-] [Compound 286] | 100% | 100% | 100% | 100% |  |  |  | 
19 | O=[N+]([O-])C(=Cc1cc(Br)cs1)C1=NCCCN1Cc1ccc(Cl)nc1 [Compound 67] | 100% | 83% | 90% | 65% |  |  |  | 
20 | CC[N+]1=C(C(=Cc2cccs2)[N+](=O)[O-])N(Cc2ccc(Cl)nc2)CC1.[Cl-] [Compound 291] | 100% | 100% | 100% | 100% |  |  |  | 
21 | CC(=C(C1=NCCN1Cc1ccc(Cl)nc1)[N+](=O)[O-])c1ccco1 [Compound 111] | 25% | 53% | 77% | 45% |  |  |  | 
22 | CC(=C(C1=NCCN1Cc1ccc(Cl)nc1)[N+](=O)[O-])c1ccc(Cl)s1 [Compound 118] | 23% | 90% | 19% | 93% |  |  |  | 
23 | N#CC(=Cc1ccc(CO)o1)C1=NCCN1Cc1ccc(Cl)nc1 [Compound 145] | 100% | 100% | 100% | 92% |  |  |  | 
24 | CC(=C(C1=NCCN1C(C)c1ccc(Cl)nc1)[N+](=O)[O-])c1ccc(Br)o1 (racemic) [Compound 137] | 100% | 100% | 100% | 98% |  |  |  | 
25 | CC[N+]1=C(C(=Cc2ccc(Br)o2)[N+](=O)[O-])N(Cc2ccc(Cl)nc2)CC1.[Cl-] [Compound 289] | 100% | 100% | 100% | 100% |  |  |  | 
26 | C[N+]1=C(C(=Cc2cc(Cl)c(Cl)s2)[N+](=O)[O-])N(Cc2ccc(Cl)nc2)CC1.[Cl-] [Compound 266] | 100% | 100% | 100% | 100% |  |  |  | 
